Data set [1] has as its system S. aureus. Put plainly: Photodynamic inactivation (PDI), CFU survival, white light (red light for TBO). The data set is classed as cell-based, Staphylococcus aureus. As to the method:
(§1) Staphylococcus aureus (ATCC #35556), Escherichia coli (ATCC #25922), and Pseudomonas aeruginosa (ATCC #BAA-47; PAO1) were cultured in brain-heart infusion (BHI) broth (Difco, BD Diagnosttic Systems, Sparks, Md.) at 37° C. in aerobic conditions in a shaker at 150 rpm. Candida albicans (ATCC #18804) is grown in YM broth (Difco). Exponential cultures obtained by reculturing stationary overnight precultures were used for experiments.
(§2) E. coli, P. aeruginosa, and S. aureus are grown in fresh medium for approximately 1 hr to a density of about 10^8 cells/ml; the OD values at 650 nm are 0.6, 0.8, and 0.8, respectively. C. albicans is grown for approximately 4 hr to an approximate density of 10^8 cells/ml, corresponding to an OD of 6 at 650 nm (measured at 10-fold dilution). Cells were used for experiments in the mid-log growth phase.
A noncoherent lamp with filtered liquid light guides, e.g., a LumaCare™ LC122 lamp (MBG Technologies, Inc., Newport Beach, Calif.) was used to provide illumination of PS. […] The lamp was adjusted to give a uniform spot of about 4 cm diameter with an irradiance of 200 mW/cm^2, as measured with a power meter, e.g., a model DMM 199 meter with 201 Standard head (Coherent, Santa Clara, Calif.). […]
Illumination was carried out from above on microbial cell suspensions in wells of a 24-well plate. […] Survival fractions were calculated with reference to cells incubated in PBS alone. […]

The subject of the next data set is P. aeruginosa. The description is as above. It counts as cell-based, Pseudomonas aeruginosa. The following applies: 10 μM; for PDT activity against P. aeruginosa: white light up to 50 J/cm^2. The method, then:
as §1, §2
(§3) A noncoherent lamp with filtered liquid light guides, e.g., a LumaCare™ LC122 lamp (MBG Technologies, Inc., Newport Beach, Calif.) was used to provide illumination of PS. More specifically, for illumination of fullerenes, a broad-band white light band pass filter (400-700 nm) was used, whereas for TBO, a band pass filter at 620-650 nm was used. The lamp was adjusted to give a uniform spot of about 4 cm diameter with an irradiance of 200 mW/cm^2, as measured with a power meter, e.g., a model DMM 199 meter with 201 Standard head (Coherent, Santa Clara, Calif.).
(§4) Typically, derivatized fullerenes prepared as described above are dissolved in DMSO to provide stock solutions having final concentrations of about 5 mM. […] All stock solutions were stored in the dark at room temperature.
(§5) In some experiments, for example in studies described in Examples below, suspensions of S. aureus cells (10^8 per ml) were incubated with derivatized fullerenes such as NI-1-3 and CI1-3 at a concentration of 100 μM in PBS at room temperature for 10 min. In other experiments, the bacterial suspension was centrifuged (4000×g for 10 min) after incubation and resuspended in fresh PBS before illumination; the latter procedure was referred to herein as a “wash.” E. coli, P. aeruginosa, and C. albicans were used at concentrations of about 10^8 cells per ml.
(§6) Illumination was carried out from above on microbial cell suspensions in wells of a 24-well plate. Aliquots were removed at times corresponding to the delivery of calculated fluences of light, and were serially diluted in PBS and streaked on square BHI or YM agar plates according to the method of Jett et al. (Jett, B. D., Hatter, K. L., Huycke, M. M., and Gilmore, M. S. (1997). Simplified agar plate method for quantifying viable bacteria. Biotechniques 23, 648-650). Survival fractions were calculated with reference to cells incubated in PBS alone. Values on killing curves at 0 J/cm^2 represent the dark toxicity of the fullerenes or other PS tested. Control cells were treated with light and no PS and also analyzed for viability.

The subject of a further data set is C. albicans. The data set is described as above. The data set is classed as cell-based, Candida albicans. The following applies: 10 μM; for PDT activity against C. albicans: white light up to 50 J/cm^2. As to the method: as §1, §2, §3, §4, §5, §6
Data set [2] in a line: Octanol-water distribution coefficient. It counts as physicochemical. The note with it: 1-octanol/DI water, absorbance at 330 nm. The method, then: Each compound was dissolved in a minimum amount of DMSO: CI1 (0.9 mg in 200 μl), CI2 (5.3 mg in 200 μl), CI3 (5.4 mg in 200 μl). Ten ml of DI water and 10 ml of 1-octanol were added in each compound and vigorously shaken for 2 min. and the vials of the compounds were settled down overnight. The phases were separated and UV-spectra of each phase were analyzed. Distribution coefficient of each compound was determined using absorbance of aqueous phases and organic phases at 330 nm.

The subject of data set [3] is S. aureus. Put plainly: Photodynamic inactivation (PDI), CFU survival, white light (red light for TBO). The data set is classed as cell-based, Staphylococcus aureus. The note with it: for PDT activity against S. aureus: 10 min, white light up to 50 J/cm^2.
Data set [4] can be described thus: Solubility in DMSO stock solution. The data set is classed as physicochemical. The following applies: lower stock concentration used than for the other fullerenes. As to the method: as §4
Six fullerene derivatives (NI1-3 and CI1-3) were evaluated. […] Concentration of fullerene derivatives used in the experiments varied between 1 and 100 μM.

The subject of data set [5] is L929 murine fibroblast line. Kind of data set: Mammalian cell toxicity, MTT viability assay after illumination. The data set is classed as cell-based, mouse. The note with it: 10 μM, 10 min; for toxicity to L929 mammalian cells at fluences used for PDI of pathogens: white light up to 50 J/cm^2. An excerpt: Experiments to test the effect of functionalized fullerenes on mammalian cells can be performed in a suitable mammalian cell line. One such cell line is the L929 murine fibroblast line (ATCC #CCL1), a spontaneously transformed immortalized cell line established from the normal subcutaneous areolar and adipose tissue of a male C3H/An mouse (Earle, W. R., Schilling, E. L., Stark, T. H., Straus, N. P., Brown, M. F., and Shelton, E. (1943). Production of malignancy in vitro. IV. The mouse fibroblast cultures and changes seen in the living cells. J. Natl. Cancer Inst. 4, 165-212). In a suitable assay, these cells were cultured in Dulbecco's modified Eagle's medium (Sigma) at 37° C. in a humidified atmosphere containing 5% CO2. The medium is preferably modified by using 4 mM L-glutamine (containing 1.5 g/l sodium bicarbonate and 4.5 g/l glucose), 10% fetal bovine serum (FBS), 100 U/ml penicillin, and […] streptomycin. Cells were plated in 96-well cell culture plates, at a density of about 300 cells/well, and are allowed to attach for 24 hr.
Fullerenes and other PS, e.g., TBO, were added at a concentration of about 10 μM in 200 μl complete medium per well. After 10 min, fresh medium is added, and the cultures were illuminated with white light (for fullerenes) or with red light (for TBO). At the completion of the illumination period, cells were returned to the incubator for 24 hr. Cell viability can be determined, for example, by using the MTT-microculture tetrazolium assay, a method of assessing cellular response to PDT (Merlin, J. L., Azzi, S., Lignon, D., Ramacci, C., Zeghari, N., and Guillemin, F. (1992). MTT assays allow quick and reliable measurement of the response of human tumour cells to photodynamic therapy. Eur. J. Cancer 28A, 1452-1458. This assay involves the reduction of a colorless substrate, i.e., 3-[4,5-Dimethylthiazol-2-yl]-diphenyltetrazolium bromide (Sigma, St. Louis, […].) to an insoluble dark-blue formazan product which is formed in proportion to the amount of succinate dehydrogenase activity in the mitochondria of living cells. After incubation with MTT for periods ranging from 4 to 8 hr, the medium was aspirated from each well, and […] DMSO is added. The absorbance at 570 nm was read by a microplate reader, e.g., a Spectra Max™ 340 PC (Molecular Devices, Sunnyvale, Calif.). The fraction of cells surviving was calculated by dividing the mean absorbances of formazan produced from PDT-treated cells by the mean absorbances from dark controls incubated with PS and kept at room temperature for periods of time equal to the irradiation times.

The subject of the next data set is E. coli. Put plainly: Photodynamic inactivation (PDI), CFU survival, white light (red light for TBO). It counts as cell-based, Escherichia coli. The following applies: 10 μM; for change of E. coli killing in the presence of serum versus no serum: white light; for PDT activity against E. coli: white light up to 50 J/cm^2. As to the method: as §1, §2, §3, §4, §5, §6

Setting [6] is: 10 min incubation, up to 16 J/cm2 of red light.
[7] abbreviates: same fluence as for the fullerenes, presence or absence of serum.

As to `C[N+]1(C)CC2c3c4ccc5c6ccc7c8ccc9c%10ccc%11c(c%12c3c3c4c5c4c6c7c5c8c9c6c%10c%11c%12c7c3c4c5c67)C2C1` (stereo not drawn) [CI1], in the data set on S. aureus [1] (100 μM, 10 min, 0 J/cm^2), the “dark toxicity to S. aureus (killing)” value is 99%. In the data set with S. aureus [1] (100, 50, 25, 10 and 1 μM, with a wash, white light 4-8 J/cm2), the “PDI of S. aureus” value was “fluence-dependent loss of viability”. Further, in the data set with P. aeruginosa (10 min), the “PDT activity against P. aeruginosa” value is on record as “effectively killed”. The “killing of P. aeruginosa” value with P. aeruginosa (10 min, with a wash, white light up to 16 J/cm^2) was determined as 2 logs. Also, in the data set with C. albicans (10 min), the “PDT activity against C. albicans” value is recorded as “effectively killed”. In data set [2], the “Kow (octanol-water partition constant)” value came out at 140.80 and the LogKow is given as 2.15. In addition, the “PDT activity against S. aureus” value with S. aureus [3] (1 μM) is “effectively killed”. Also, in the data set with S. aureus [3] (10 and 1 μM, with a wash), the “dark toxicity to S. aureus” value is given as “nonexistent”. In addition, the “solubility in DMSO (stock solution)” value in data set [4] is given as “poorly soluble”. Further, the “toxicity to L929 mammalian cells at fluences used for PDI of pathogens” value in data set [5] is given as “not killed”. Also, the “change of E. coli killing in the presence of serum versus no serum” value with E. coli (10 min, 10% FBS, with a wash) was “unchanged”. The “PDT activity against E. coli” value with E. coli (10 min) is listed as “effectively killed”. For the same compound, the “killing of E. coli” value with E. coli (with a wash, 8 J/cm^2 white light) was determined as 3 logs.
`C[N+]1(C)Cc2c(c3c4ccc5c6c7c(c8c9ccc%10c%11c%12c%13c(c2c2c3c3c4c5c4c6c8c5c9c%10c%12c6c(c%132)c3c4c56)C2C[N+](C)(C)CC%112)C[N+](C)(C)C7)C1` (stereo not drawn) [CI3]: the “PDT activity against P. aeruginosa” value in the data set with P. aeruginosa (10 min) is reported as “effectively killed”. The “PDT activity against C. albicans” value with C. albicans (10 min) is “effectively killed”. Moreover, in the data set with C. albicans (10 min, with a wash, white light), the “relative effectiveness in killing C. albicans” value was “slightly more effective than CI2”. Moreover, in data set [2], the “Kow (octanol-water partition constant)” value came to 0.37 and the LogKow was −0.43. In the data set with S. aureus [3] (1 μM), the “PDT activity against S. aureus” value is recorded as “effectively killed”. Also, in the data set on S. aureus [3] (1 μM, with a wash, white light), the “light sufficient to kill 4-5 logs of S. aureus” value worked out at 1 J/cm^2. In data set [5], the “toxicity to L929 mammalian cells at fluences used for PDI of pathogens” value was “not killed”. Moreover, the “change of E. coli killing in the presence of serum versus no serum” value with E. coli (10 min, 10% FBS, with a wash) is “about 1 log”. Also, the “PDT activity against E. coli” value in the data set with E. coli (10 min) is “effectively killed”. Further, the “killing of E. coli” value with E. coli (with a wash, 2 J/cm^2 white light) was found to be 6 logs.
Turning to `Cc1cc2nc3ccc(N(C)C)cc3[s+]c2cc1N.[Cl-]` [TBO, toluidine blue O, reference compound], the “killing of P. aeruginosa” value is reported as ≤ 90% in the data set with P. aeruginosa (setting [6]) and “less than 1 log” with P. aeruginosa (setting [7]). The “killing of C. albicans” value with C. albicans (setting [6]) was ≤ 90%; in the data set with C. albicans (setting [7]), “less than 1 log”. Moreover, the “killing of S. aureus” value is reported as ≤ 90% in the data set on S. aureus [3] (1 μM, 10 min incubation, up to 16 J/cm2 of red light) and “less than 1 log” in the data set on S. aureus [3] (1 μM, same fluence as for the fullerenes, presence or absence of serum). Besides, in data set [5] (10% FBS, with a wash), the “dark toxicity toward L929 cells (killing)” value is “little dark toxicity”. In data set [5] (10% FBS, with a wash, red light), the “fluence at which the limit of the viability assay was reached (L929)” value was 80 J/cm^2. Also, the “additional phototoxicity toward L929 cells” value in data set [5] (10% FBS, with a wash, white or red light up to 120 J/cm^2) is on record as “pronounced light-dependent toxicity”. Besides, the “PDI of E. coli in the presence of serum” value with E. coli (10 min, 10% FBS, with a wash, red light) is given as “almost ineffective”. For the same compound, the “killing of E. coli” value with E. coli (setting [6]) was ≤ 90%.

These data come from US8207211B2, “Photosensitizers for targeted photodynamic therapy” (The General Hospital Corporation, priority 2005, dated 2012).
